Tests used:
Type in all cases: functional, cell-based
P388 = assay: Cytotoxicity against mouse P388 cells
L1210 = assay: Cytotoxicity against mouse L1210 cells
KB = assay: Cytotoxicity against human KB cells

Measured: IC50

C=C1CCC[C@H]2[C@](C)(Cc3cc(C(=O)OC)c(O)c(NC4=CC(=O)C(O)=C(C[C@]5(C)[C@@H](C)CC[C@]6(C)C(C)=CCC[C@@H]56)C4=O)c3O)[C@@H](C)CC[C@]12C [NAKIJIQUINONE E]
> 10 µg/mL: P388 | L1210 | KB

COC(=O)c1cc(C[C@]2(C)[C@@H](C)CC[C@]3(C)C(C)=CCC[C@@H]23)c(O)c(NC2=CC(=O)C(O)=C(C[C@]3(C)[C@@H](C)CC[C@]4(C)C(C)=CCC[C@@H]34)C2=O)c1O [NAKIJIQUINONE F]
> 10 µg/mL: P388 | L1210 | KB
